For experiment [1], the target named is T1, GDP-loaded KRAS4b (amino acids 1-169) G12C/C118S protein (Homo sapiens, UniProt P01116, C118S/G12C).
T1 construct: KRAS4b (amino acids 1-169) G12C/C118S protein; made in house
Briefly: Covalent cysteine 12 modification by MALDI-TOF MS, GDP-loaded KRAS G12C. In kind it is binding. To be noted: 15 minutes reaction time point. The method in brief: (§1)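 Covalent labelling is scored at 15 min by MALDI-TOF mass spectrometry, using 1 μM protein with compound at a 1:2.5 protein-to-compound ratio at room temperature.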

Experiment [2] deals with T2, Avi-KRAS G12C (1-169) GppNHp/RAF1 RBD-3×FLAG (52-151) (Homo sapiens, UniProt P01116, G12C).
T2 construct: Avi-KRAS G12C (1-169) GppNHp; Avi (N)
Kind of experiment: Raf1 RBD-KRAS G12C-GppNHp disruption assay (protein:protein interaction HTRF). In kind it is biochemical. The method in brief: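 HTRF measuring RAF1 RBD binding to GppNHp-loaded KRAS G12C (50 nM) in Tris pH 7.5, 100 mM NaCl, 5 mM MgCl2, 10% DMSO. Compound, KRAS, RBD and detection reagents each added sequentially with 1 h room-temperature incubations; 10-point titration; excitation 320 nm, emission 615 nm; activity as % of DMSO; IC50 derived.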
On the technique in general: TR-FRET usually uses a lanthanide donor and a delayed reading to cut background.

Experiment [3] addresses T3, GTP-loaded KRAS4b (amino acids 1-169) G12C/C118S protein (Homo sapiens, UniProt P01116, C118S/G12C).
T3 construct: KRAS4b (amino acids 1-169) G12C/C118S protein; made in house
Kind of experiment: Covalent cysteine 12 modification by MALDI-TOF MS, GTP-loaded KRAS G12C. In kind it is binding. To be noted: 15 minutes reaction time point. The method in brief:
as §1

On to `C=CC(=O)N1CC[C@@H](N(C)c2nc(OC[C@@H]3CC4(CC4)CN3CC)nc3c(F)c(-c4ccc(F)c5sc(N)c(C#N)c45)c(Cl)cc23)[C@@H]1C` [Compound 92], for which the “GDP-KRAS G12C percent of modification” value in experiment [1] was “A (percent of modification ≥70%)”. In addition, the half-inhibitory concentration (IC50) (as a rule, the concentration needed to halve the response being measured) in experiment [2] was < 500 nM. Besides, the “GTP-KRAS G12C percent of modification” value in experiment [3] was “B (50≤percent of modification <70%)”.

For the compound `C=CC(=O)N1CC[C@@H](N(C)c2nc(OC[C@@H]3CC4(CC4)CN3CC)nc3c(F)c(-c4ccc(F)c5sc(N)c(C#N)c45)c(C(F)(F)F)cc23)[C@@H]1C` [Compound 95], in experiment [1], the “GDP-KRAS G12C percent of modification” value is reported as “A (percent of modification ≥70%)”. Also, the half-maximal inhibitory concentration (IC50) in experiment [2] was < 500 nM. The “GTP-KRAS G12C percent of modification” value in experiment [3] is “B (50≤percent of modification <70%)”.

Take `C=CC(=O)N1CC[C@@H](N(C)c2nc(OC[C@@H]3CC4(CC4)CN3CC)nc3c(F)c(-c4ccc(F)c5sc(N)c(C#N)c45)c(Cl)cc23)[C@H]1C` [Compound 97]: in experiment [1], the “GDP-KRAS G12C percent of modification” value is given as “A (percent of modification ≥70%)”. Moreover, the half-inhibitory concentration (IC50) in experiment [2] was < 500 nM. Moreover, in experiment [3], the “GTP-KRAS G12C percent of modification” value is listed as “A (percent of modification ≥70%)”.

For `C=CC(=O)N1CC[C@@H](N(C)c2nc(OC[C@@H]3C[C@@H](F)CN3CC)nc3c(F)c(-c4ccc(F)c5sc(N)c(C#N)c45)c(Cl)cc23)[C@H]1C` [Compound 98], the “GDP-KRAS G12C percent of modification” value in experiment [1] is “D (percent of modification <10%)”. In experiment [2], this compound gave a 50% inhibitory concentration (IC50) of 500 to 5000 nM. Also, the “GTP-KRAS G12C percent of modification” value in experiment [3] is recorded as “D (percent of modification <10%)”.

In the case of `C=CC(=O)N1CC[C@@H](N(C)c2nc(OC[C@@H]3C[C@@H](OC)CN3CC)nc3c(F)c(-c4ccc(F)c5sc(N)c(C#N)c45)c(Cl)cc23)[C@H]1C` [Compound 99], the “GDP-KRAS G12C percent of modification” value in experiment [1] was “A (percent of modification ≥70%)”. In experiment [2], the IC50 is < 500 nM. Further, the “GTP-KRAS G12C percent of modification” value in experiment [3] is on record as “A (percent of modification ≥70%)”.

Turning to `C=CC(=O)N1CC[C@@H](N(C)c2nc(OC[C@@H]3C[C@@H](OC)CN3CC)nc3c(F)c(-c4ccc(F)c5sc(N)c(C#N)c45)c(Cl)cc23)[C@@H]1C` [Compound 100], the “GDP-KRAS G12C percent of modification” value in experiment [1] is reported as “A (percent of modification ≥70%)”. In addition, the IC50 in experiment [2] was < 500 nM. Also, the “GTP-KRAS G12C percent of modification” value in experiment [3] is reported as “C (10%≤percent of modification <50%)”.

Values taken from patent US20260232666A1, “COMPOSITIONS AND METHODS FOR INHIBITION OF RAS” (TheRas, Inc., priority 2023, published 2026).
